Experimental data as given in patent US10828305B2 (SHANGHAI PHARMACEUTICALS HOLDING CO., LTD., priority 2016, dated 2020).
Where two headings read alike, the source gives them in different places.

Tests used:
[1] = In vivo pharmacokinetics study in mice; conditions: male, ICR, mouse, plasma, po, iv 3 mg/kg, intragastric 10 mg/kg, read-out: Absolute bioavailability F
Experimental: In Vivo Pharmacokinetics Study in Rats and Mice
24 male ICR mices, with weight of 18 to 22 g. The mice were fasted for 12 to 16 hours before the experiment, without restricting drinking water. 24 mice were divided into 2 groups, 12 mice for each group. The first group was intravenously administrated with test compound (10 mL/kg, 0.3 mg/mL) at a dose of 3 mg/kg, 0.4 mL blood sample was taken from venous plexus of the fundus of the eye into a pre-heparinized centrifuge tube (sodium heparin solution 10 μL/tube) before administration and 2, 5, 15, 30, 60, 90, 120, 240, 360, 480, 720, 1440 min after administration, respectively. The second group was dosed with compound (20 mL/kg, 0.5 mg/mL) by intragastric administration at a dose of 10 mg/kg, 0.4 mL blood sample was taken from venous plexus of the fundus of the eye into a pre-heparinized centrifuge tube (sodium heparin solution 10 μL/tube) before administration and 5, 15, 30, 60, 90, 120, 240, 360, 480, 720, and 1440 min after administration, respectively. 2 to 3 time points were taken for each mouse. […]
Taking 50 μL plasma sample of rat or mouse, adding […] acetonitrile containing internal standard (propranolol, 2.5 ng/ml) to precipitate protein. Vortexing for 10 min, centrifuging at 6000 g for 10 min, the supernatant was taken and diluted with mobile phase in a 96-well plate, the drug concentration in plasma was measured by UPLC/MS-MS. […]

CYP3A4 = molecular target: T1, CYP3A4 (Homo sapiens, UniProt P08684); experiment: Direct inhibition of CYP3A4, human liver microsome; assay type: in vitro ADME
T1 construct: from tissue; host or cells: human liver microsomes
Experimental: (§1) Research on Direct Inhibition of CYP3A4, CYP2D6, CYP2C9, CYP2C19, CYP1A2
(§2) 100 μL human liver microsome (with final concentration of 0.2 mg/mL) was used for direct inhibition under warm incubation, the positive control system contained NADPH (with final concentration of 1 mmol/L), a mixture of positive inhibitors (ketoconazole 0.01 to 10 μmol/L, quinidine 0.01 to 10 μmol/L, sulfaphenazole 0.1 to 100 μmol/L, tranylcypromine 1 to 1000 μmot/L, α-naphthoflavone 0.01 to 10 μmol/L), and a substrate mixture (with final concentration of midazolam 10 μmol/L, testosterone 100 μmol/L, dextromethorphan 10 μmol/L, diclofenac 20 μmol/L, S-mephenytoin 50 μmol/L, phenacetin 100 μmol/L), and the reaction was terminated after incubation for 20 min. The positive inhibitor was replaced with 0.1 to 100 μmol/L test compound in the test compound group. The reaction was terminated with acetonitrile containing 0.11 μg/mL internal standard tinidazole (1:3), vortexed for 10 min, centrifuged at 6000×g for 10 min, 50 μL supernatant was taken and put into a 96-well plate for injection.
(§3) In this experiment, IC50 of inhibition of the compound on the enzyme was calculated by measuring relative production of the probe metabolite. The activity of CYP3A4 was simultaneously characterized by two probes of midazolam and testosterone.

CYP2B6 = molecular target: T2, CYP2B6 (Homo sapiens, UniProt P20813); experiment: Direct inhibition of CYP2B6, human liver microsome; assay type: in vitro ADME; conditions: probe bupropion, read-out: IC50 2B6 (Bupropion)
T2 construct: from tissue; host or cells: human liver microsomes
T2 sequence (P20813 1-491): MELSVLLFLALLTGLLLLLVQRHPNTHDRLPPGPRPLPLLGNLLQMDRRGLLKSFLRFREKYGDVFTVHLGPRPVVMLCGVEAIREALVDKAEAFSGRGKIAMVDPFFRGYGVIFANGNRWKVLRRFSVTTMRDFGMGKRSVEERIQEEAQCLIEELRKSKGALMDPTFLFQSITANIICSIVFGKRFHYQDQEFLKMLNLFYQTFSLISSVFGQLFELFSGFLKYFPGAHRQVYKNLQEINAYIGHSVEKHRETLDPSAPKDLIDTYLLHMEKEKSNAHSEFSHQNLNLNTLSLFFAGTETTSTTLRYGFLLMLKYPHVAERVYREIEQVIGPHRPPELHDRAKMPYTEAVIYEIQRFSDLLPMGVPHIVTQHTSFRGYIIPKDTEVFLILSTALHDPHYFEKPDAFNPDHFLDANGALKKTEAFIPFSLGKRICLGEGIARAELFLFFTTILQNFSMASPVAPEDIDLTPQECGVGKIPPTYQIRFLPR
Experimental: Research on Direct Inhibition of CYP2B6 and CYP2C8
100 μL human liver microsome (with final concentration of 0.2 mg/mL) was used for direct inhibition under warm incubation. The positive control system contained NADPH (with final concentration of 1 mmol/L), a mixture of positive inhibitors (ketoconazole 0.05 to 50 μmol/L, montelukast sodium 0.001 to 1 μmol/L), and a substrate mixture (with final concentration of amfepramone 50 μmol/L and paclitaxel 5 μmol/L), and the reaction was terminated after incubation for 20 min. The positive inhibitor was replaced with 0.1 to 100 μmol/L test compound in the test compound group. The reaction was terminated with acetonitrile containing […] internal standard tinidazole (1:3), vortexed for 10 min, centrifuged at 6000×g for 10 min, and 50 μL supernatant was taken and put into a 96-well plate for injection.
as §3

CYP2D6 = molecular target: T3, CYP2D6 (Homo sapiens, UniProt P10635); experiment: Direct inhibition of CYP2D6, human liver microsome; assay type: in vitro ADME; conditions: probe dextromethorphan, read-out: IC50 2D6 (Dextromethorphan)
T3 construct: from tissue; host or cells: human liver microsomes
Experimental: as §1, §2, §3

[2] = test system: human breast cancer BT-474 xenograft; conditions: oral, 20 days
[3] = test system: human gastric cancer NCI-N87 xenograft; experiment: HER2 overexpressing human gastric cancer NCI-N87 xenograft model in nude mice; assay type: in vivo, Balb/c nude mice; conditions: oral, 22 days
CYP2C9 = molecular target: T4, CYP2C9 (Homo sapiens, UniProt P11712); experiment: Direct inhibition of CYP2C9, human liver microsome; assay type: in vitro ADME; conditions: probe diclofenac, read-out: IC50 2C9 (Diclofenac)
T4 construct: from tissue; host or cells: human liver microsomes
Experimental: as §1, §2, §3

[4] = probe midazolam, read-out: IC50 3A4 (Midazolam)
[5] = probe testosterone, read-out: IC50 3A4 (testosterone)

T1 sequence (P08684 whole entry): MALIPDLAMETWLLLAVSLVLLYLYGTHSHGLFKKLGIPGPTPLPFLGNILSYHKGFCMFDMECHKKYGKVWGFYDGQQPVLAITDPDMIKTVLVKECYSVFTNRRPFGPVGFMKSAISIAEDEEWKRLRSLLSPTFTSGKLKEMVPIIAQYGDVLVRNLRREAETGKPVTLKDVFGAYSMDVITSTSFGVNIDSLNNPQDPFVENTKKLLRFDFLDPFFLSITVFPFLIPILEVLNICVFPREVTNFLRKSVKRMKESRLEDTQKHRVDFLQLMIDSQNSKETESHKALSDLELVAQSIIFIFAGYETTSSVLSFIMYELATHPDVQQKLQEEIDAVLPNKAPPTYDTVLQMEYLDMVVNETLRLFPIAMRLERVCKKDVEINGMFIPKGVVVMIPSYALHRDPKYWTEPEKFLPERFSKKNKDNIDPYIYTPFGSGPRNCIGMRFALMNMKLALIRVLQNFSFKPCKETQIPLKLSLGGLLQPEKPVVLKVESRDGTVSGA
T4 sequence (P11712 whole entry): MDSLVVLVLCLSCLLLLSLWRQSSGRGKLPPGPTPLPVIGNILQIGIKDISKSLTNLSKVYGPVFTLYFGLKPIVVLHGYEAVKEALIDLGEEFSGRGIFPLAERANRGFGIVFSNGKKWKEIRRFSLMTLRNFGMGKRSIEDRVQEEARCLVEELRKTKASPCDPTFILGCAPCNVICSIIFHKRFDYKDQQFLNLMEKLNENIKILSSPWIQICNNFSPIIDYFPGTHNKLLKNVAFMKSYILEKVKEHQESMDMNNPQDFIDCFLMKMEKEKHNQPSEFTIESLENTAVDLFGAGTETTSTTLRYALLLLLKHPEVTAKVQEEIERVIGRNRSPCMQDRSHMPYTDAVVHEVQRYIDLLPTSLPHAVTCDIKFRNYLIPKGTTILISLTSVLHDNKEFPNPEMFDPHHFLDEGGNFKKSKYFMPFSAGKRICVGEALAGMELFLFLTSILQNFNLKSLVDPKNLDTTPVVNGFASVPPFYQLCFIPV
T3 sequence (P10635 whole entry): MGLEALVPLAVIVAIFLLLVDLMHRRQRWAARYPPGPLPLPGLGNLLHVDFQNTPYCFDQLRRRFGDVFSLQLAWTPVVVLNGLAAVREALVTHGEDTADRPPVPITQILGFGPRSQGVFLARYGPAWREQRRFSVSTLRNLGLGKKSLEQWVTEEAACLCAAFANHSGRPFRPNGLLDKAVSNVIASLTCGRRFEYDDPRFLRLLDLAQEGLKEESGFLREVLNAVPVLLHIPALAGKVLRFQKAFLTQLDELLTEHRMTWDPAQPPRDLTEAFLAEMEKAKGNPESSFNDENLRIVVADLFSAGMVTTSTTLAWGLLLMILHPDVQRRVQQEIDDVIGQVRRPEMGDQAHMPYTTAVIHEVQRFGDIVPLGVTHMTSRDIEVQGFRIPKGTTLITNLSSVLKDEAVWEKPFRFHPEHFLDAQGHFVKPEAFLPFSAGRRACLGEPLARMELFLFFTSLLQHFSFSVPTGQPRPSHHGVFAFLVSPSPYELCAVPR

| SMILES | bioavailability [1] [%] | IC50 (CYP3A4; [4]) [µM] | IC50 (CYP3A4; [5]) [µM] | IC50 (CYP2B6) [µM] | IC50 (CYP2D6) [µM] | tumor volume inhibition rate (GI %) ([2]; 100MPK) [%] | tumor volume inhibition rate (GI %) ([3]; 50MPK) [%] | IC50 (CYP2C9) [µM] | tumor volume inhibition rate (GI %) ([2]; 25MPK) [%] | tumor volume inhibition rate (GI %) ([2]; 50MPK) [%] | tolerability [2] | tumor volume inhibition rate (GI %) ([3]; 100MPK) [%] |
| --- | --- | --- | --- | --- | --- | --- | --- | --- | --- | --- | --- | --- |
| Cc1cc(Nc2ncnc3ccc(NC4=NC(C)(C)CO4)cc23)ccc1Oc1ccn2ncnc2c1 [ARRY-380, reference compound] | 61 | 11 | 11 | > 100 | 3 | 108.8 | 59.5 | 13 |  |  |  |  |
| Cc1cc(Nc2ncnc3ccc(NC4=NC(C)(C)CO4)cc23)ccc1Oc1cc2nncn2cn1 [Embodiment 4, N^4-(4-([1,2,4]triazolo[4,3-c]pyrimidin-7-yloxy)-3-methylphenyl)-N^6-(4,4-dimethyl-4,5-dihydrooxazol-2-yl)quinazoline-4,6-diamine] | 96.2 | 25 | 21 | > 100 | 12 | 126.4 | 84.3 | 53 | 70.3 | 103.2 | good tolerability | 117.9 |
